These results are taken from ChEMBL document CHEMBL3102717, “Synthesis and biological evaluation of amino acid methyl ester conjugates of 2-cyano-3,12-dioxooleana-1,9(11)-dien-28-oic acid against the production of nitric oxide (NO)” (2014).

Activity calls are given as the source filed them. The rule behind the calls is not given here. Some results are limits rather than exact numbers.

For experiment [1], the system named is RAW264.7. The experiment is described as follows: Inhibition of IFN-gamma-induced nitric oxide production in mouse RAW264.7 cells at 30 nM after 24 hrs by Griess method. It counts as functional, cell-based.
Experiment [2] concerns the target T1, Nuclear factor erythroid 2-related factor 2 (Mus musculus) (UniProt Q60795).
T1 sequence (whole entry): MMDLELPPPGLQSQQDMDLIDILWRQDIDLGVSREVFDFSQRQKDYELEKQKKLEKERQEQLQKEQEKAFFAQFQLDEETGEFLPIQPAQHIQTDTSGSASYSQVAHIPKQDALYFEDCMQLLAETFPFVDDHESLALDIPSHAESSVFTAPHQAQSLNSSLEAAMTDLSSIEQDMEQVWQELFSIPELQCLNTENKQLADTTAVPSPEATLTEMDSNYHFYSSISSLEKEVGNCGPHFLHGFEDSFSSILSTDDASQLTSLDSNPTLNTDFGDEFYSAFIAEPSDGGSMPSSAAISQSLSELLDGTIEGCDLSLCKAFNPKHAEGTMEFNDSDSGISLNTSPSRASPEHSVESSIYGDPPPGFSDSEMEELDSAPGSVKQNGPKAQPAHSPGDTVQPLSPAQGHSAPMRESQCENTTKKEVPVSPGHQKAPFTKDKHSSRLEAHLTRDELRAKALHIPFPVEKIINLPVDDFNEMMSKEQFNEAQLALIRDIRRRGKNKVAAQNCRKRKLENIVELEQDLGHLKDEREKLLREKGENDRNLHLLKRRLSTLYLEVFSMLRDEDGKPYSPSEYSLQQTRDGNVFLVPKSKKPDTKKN
In words: Induction of Nrf2-mediated HO-1 expression in mouse RAW264.7 cells at 30 to 300 nM after 6 hrs by Western blot method. It counts as cell-based. (Immunoblotting shows a protein as a band on a membrane.)

The nature of experiment [3]: Antiproliferative activity against mouse PANC1343 cells assessed as viable cells at 1uM after 72 hrs by MTT assay. It counts as functional. To be noted: PANC-1, 72 h, read-out: Activity. Background: Tetrazolium dyes change colour on reduction, which living cells bring about.
For experiment [4], the system named is RAW264.7. In words: Antioxidant activity in mouse RAW264.7 cells assessed as inhibition of tBHP-induced ROS production at 100 nM pretreated for 18 hrs before challenge measured after 15 mins by H2DCFA-based flow cytometry. It counts as functional, cell-based.
Experiment [5] concerns RAW264.7. In words: Antioxidant activity in mouse RAW264.7 cells assessed as inhibition of tBHP-induced ROS production at 10 nM pretreated for 18 hrs before challenge measured after 15 mins by H2DCFA-based flow cytometry. It counts as functional. A general note: In flow cytometry, cells or beads pass a laser one at a time.

Turning to `COC(=O)C(CC(C)C)NC(=O)[C@]12CCC(C)(C)C[C@H]1[C@H]1C(=O)C=C3[C@@]4(C)C=C(C#N)C(=O)C(C)(C)[C@@H]4CC[C@@]3(C)[C@]1(C)CC2` (some centres undefined), the inhibition entry in the experiment on RAW264.7 [1] was “inactive”.
Still for that read-out and setting: to `COC(=O)C(Cc1c[nH]c2ccccc12)NC(=O)[C@]12CCC(C)(C)C[C@H]1[C@H]1C(=O)C=C3[C@@]4(C)C=C(C#N)C(=O)C(C)(C)[C@@H]4CC[C@@]3(C)[C@]1(C)CC2` (some centres undefined) belongs “inactive”.
As for `CCNC(=O)[C@]12CCC(C)(C)C[C@H]1[C@H]1C(=O)C=C3[C@@]4(C)C=C(C#N)C(=O)C(C)(C)[C@@H]4CC[C@@]3(C)[C@]1(C)CC2`, in experiment [2], the HO-1 expression induction result is “Active”. Besides, the inhibition entry in the experiment on RAW264.7 [1] is “Active”.
With `COC(=O)C(Cc1ccccc1)NC(=O)[C@]12CCC(C)(C)C[C@H]1[C@H]1C(=O)C=C3[C@@]4(C)C=C(C#N)C(=O)C(C)(C)[C@@H]4CC[C@@]3(C)[C@]1(C)CC2` (some centres undefined), in the experiment with RAW264.7 [1], the inhibition entry is “inactive”.
Same read-out and setting: the entry for `COC(=O)C1CCCN1C(=O)[C@]12CCC(C)(C)C[C@H]1[C@H]1C(=O)C=C3[C@@]4(C)C=C(C#N)C(=O)C(C)(C)[C@@H]4CC[C@@]3(C)[C@]1(C)CC2` (some centres undefined) is “inactive”; for `COC(=O)C(Cc1cnc[nH]1)NC(=O)[C@]12CCC(C)(C)C[C@H]1[C@H]1C(=O)C=C3[C@@]4(C)C=C(C#N)C(=O)C(C)(C)[C@@H]4CC[C@@]3(C)[C@]1(C)CC2` (some centres undefined) it is “inactive”.
`COC(=O)C(NC(=O)[C@]12CCC(C)(C)C[C@H]1[C@H]1C(=O)C=C3[C@@]4(C)C=C(C#N)C(=O)C(C)(C)[C@@H]4CC[C@@]3(C)[C@]1(C)CC2)C(C)C` (some centres undefined): in experiment [2], the HO-1 expression induction entry is “Active”. In addition, the viability at 1 µM in experiment [3] was under 10%. Further, the inhibition entry in the experiment with RAW264.7 [4] and in the experiment on RAW264.7 [1] was “Active” each time. The inhibition at 0.01 µM in the experiment on RAW264.7 [5] amounted to 50%.
As to `COC(=O)C(CO)NC(=O)[C@]12CCC(C)(C)C[C@H]1[C@H]1C(=O)C=C3[C@@]4(C)C=C(C#N)C(=O)C(C)(C)[C@@H]4CC[C@@]3(C)[C@]1(C)CC2` (some centres undefined), the HO-1 expression induction result in experiment [2] is “Active”. Moreover, the viability at 1 µM in experiment [3] is under 10%. The inhibition result in the experiment on RAW264.7 [4] and in the experiment on RAW264.7 [1] was “Active” in each case. The inhibition at 0.01 µM in the experiment with RAW264.7 [5] turned out to be 50%.
In the case of `COC(=O)[C@]12CCC(C)(C)C[C@H]1[C@H]1C(=O)C=C3[C@@]4(C)C=C(C#N)C(=O)C(C)(C)[C@@H]4CC[C@@]3(C)[C@]1(C)CC2`, the inhibition entry with RAW264.7 [4] is “Active”.
`COC(=O)CC(NC(=O)[C@]12CCC(C)(C)C[C@H]1[C@H]1C(=O)C=C3[C@@]4(C)C=C(C#N)C(=O)C(C)(C)[C@@H]4CC[C@@]3(C)[C@]1(C)CC2)C(=O)OC` (some centres undefined): the inhibition entry in the experiment with RAW264.7 [1] is “inactive”.
On to `COC(=O)C(C)NC(=O)[C@]12CCC(C)(C)C[C@H]1[C@H]1C(=O)C=C3[C@@]4(C)C=C(C#N)C(=O)C(C)(C)[C@@H]4CC[C@@]3(C)[C@]1(C)CC2` (some centres undefined), for which the HO-1 expression induction entry in experiment [2] is “Active”. Besides, in experiment [3], the viability at 1 µM was under 10%. Besides, the inhibition at 0.01 µM in the experiment with RAW264.7 [5] worked out at 50%. Moreover, in the experiment with RAW264.7 [1], the inhibition result was “Active”.
For the molecule `COC(=O)C(Cc1ccc(O)cc1)NC(=O)[C@]12CCC(C)(C)C[C@H]1[C@H]1C(=O)C=C3[C@@]4(C)C=C(C#N)C(=O)C(C)(C)[C@@H]4CC[C@@]3(C)[C@]1(C)CC2` (some centres undefined), the inhibition result with RAW264.7 [1] is “inactive”.

Broadly, the inhibition is the share of the control response that was lost under treatment.
